Data as given in patent US20250098720A1, “SWEETENER COMPOSITIONS” (Firmenich SA, priority 2022, published 2025).

Tests used:
[1] = pH value of the sweet-sour base with compound; format: physicochemical; conditions: 10 ppm compound in sweet-sour base of inverted sugar and citric acid
[2] = Sensory experiment, trained panel, sweet base (water solution containing sucrose at 4%); format: in vivo, human; conditions: 10 ppm compound in 4% sucrose base; twenty trained panelists
Experimental: (§1) Methodology: compounds 101 and 108 were evaluated as sweet modifiers in a sweet (water solution containing sucrose at 4%) or a sweet-sour base (mixture of inverted sugar and citric acid at 7% and 0.15%) at 10 ppm. Twenty trained panelists were asked to compare the intensity difference between reference and compound 101 or compound 108. The taste properties (such as sweet, sour) were evaluated on a scale of −5 to 5 (−5 denoted strong masking effect and 5 denoted strong enhancing effect, 0 being the intensity of reference.

[3] = Sensory experiment, trained panel, sweet-sour base (inverted sugar 7% and citric acid 0.15%); format: in vivo, human; conditions: 10 ppm compound in sweet-sour base of inverted sugar 7% and citric acid 0.15%
Experimental: as §1

pH value of the base [1] | SMILES | sweet intensity versus reference (scale -5 to 5) [2] | sour intensity versus reference (scale -5 to 5) [3] | sweet intensity versus reference (scale -5 to 5) [3]
without changing the pH value | COc1cc(O)c(C(=O)CCc2ccc(O)cc2)c(O)c1C [compound 101] | can increase sweet intensity | significantly increase | significantly increase
 | O=C1CC(c2ccc(O)cc2)c2c(cc(O)c(C(=O)CCc3ccc(O)cc3)c2O)O1 (centres unmarked) [compound 108] | can increase sweet intensity |  | 
